The text below walks through data of ChEMBL document CHEMBL4364295, “Discovery of a First-in-Class Receptor Interacting Protein 2 (RIP2) Kinase Specific Clinical Candidate, 2-((4-(Benzo[d]thiazol-5-ylamino)-6-(tert-butylsulfonyl)quinazolin-7-yl)oxy)ethyl Dihydrogen Phosphate, for the Treatment of Inflammatory Diseases” (J Med Chem, 2019).

One may read the AUC as the area under the concentration-time curve, a measure of exposure. Usually solubility stands for the concentration that dissolves in the medium under given conditions. A high value points to much dissolved substance. As usually defined, the IC50 is the concentration that gives 50% inhibition. A word on the inhibition: it is the drop in the measured response relative to a control, in per cent.

Data set [1] is described as follows: AUC in Sprague-Dawley rat at 2 mg/kg, po by LC/MS/MS analysis. Type of data set: ADME, organism-based. The note with it: in vivo.
A short description of data set [2]: Solubility of the compound in FaSSIF measured after 4 hrs. Type of data set: physicochemical.
The nature of data set [3]: AUC in Sprague-Dawley rat assessed as 2-((4-(Benzo[d]thiazol-5-ylamino)-6-(tert-butylsulfonyl)quinazolin-7-yl)oxy)ethanol level at 2 mg/kg, po by LC/MS/MS analysis. Type of data set: ADME, organism-based. The note with it: in vivo.
Data set [4] in a line: Drug uptake in po dosed Sprague-Dawley rat systemic circulation by LC/MS/MS analysis. Type of data set: ADME, organism-based. The note with it: in vivo.
Data set [5] is described as follows: (§1) Inhibition of NOD2/TLR2 in human PBMC assessed as reduction in MDP/Pam2CSK4-induced TNFalpha production preincubated for 30 mins followed by MDP/Pam2CSK4 stimulation and measured after 6 hrs by immunoassay.
The species entered for data set [6] is Homo sapiens. The description is as §1.
The species named for data set [7] is Homo sapiens. In words: Inhibition of NOD2/TLR2 in human PBMC assessed as reduction in MDP/Pam2CSK4-induced IL6 production preincubated for 30 mins followed by MDP/Pam2CSK4 stimulation and measured after 6 hrs by immunoassay.
For data set [8], the species on record is Homo sapiens. In words: Inhibition of NOD2/TLR4 in human PBMC assessed as reduction in MDP/LPS-induced IL6 production preincubated for 30 mins followed by […] and measured after 6 hrs by immunoassay.
For data set [9], the species on record is Homo sapiens. In words: Inhibition of NOD2/TLR5 in human PBMC assessed as reduction in MDP/flagellin-induced IL6 production preincubated for 30 mins followed by […] and measured after 6 hrs by immunoassay.
For data set [10], the species on record is Homo sapiens. In words: Inhibition of NOD2/IL1R in human PBMC assessed as reduction in MDP/Il1alpha-induced IL6 production preincubated for 30 mins followed by […] and measured after 6 hrs by immunoassay.
The species entered for data set [11] is Homo sapiens. In words: Inhibition of NOD2/TLR4 in human PBMC assessed as reduction in MDP/LPS-induced TNFalpha production preincubated for 30 mins followed by […] and measured after 6 hrs by immunoassay.
Data set [12] is filed under the species Homo sapiens. In words: Inhibition of NOD2/TLR5 in human PBMC assessed as reduction in MDP/flagellin-induced TNFalpha production preincubated for 30 mins followed by […] and measured after 6 hrs by immunoassay.
The species named for data set [13] is Homo sapiens. The experiment in a line: Inhibition of NOD2/IL1R in human PBMC assessed as reduction in MDP/Il1alpha-induced TNFalpha production preincubated for 30 mins followed by […] and measured after 6 hrs by immunoassay.
Data set [14] is described as follows: Solubility of the compound in FaSSIF. The note with it: simulated gi fluid. Format: physicochemical.
The nature of data set [15]: Solubility of the compound in FeSSIF. Format: physicochemical. The note with it: simulated gi fluid.
Data set [16] deals with T1, Voltage-gated inwardly rectifying potassium channel KCNH2 (Homo sapiens, UniProt Q12809). The experiment in a line: Inhibition of human ERG (1159 residues) expressed in CHOK1 cells at -80 mV holding potential measured after 5 mins by QPatch electrophysiology method. Format: cell-based. (In general: In patch-clamp work, channel activity is measured electrically.)
For data set [17], the target named is T2, Receptor-interacting serine/threonine-protein kinase 2 (Homo sapiens, UniProt O43353). In words: Inhibition of fluorescent-labelled ligand binding to human RIP2K preincubated for 10 mins followed by fluorescent-labelled ligand addition and measured after 10 mins by fluorescence polarization assay. On the technique in general: Polarisation of emitted light reports the rotation of a fluorescent probe.

For data set [18], the target named is T2, Receptor-interacting serine/threonine-protein kinase 2. In words: Inhibition of RIPK2 in human whole blood assessed as reduction in MDP-induced TNFalpha production preincubated for 30 mins followed by MDP-stimulation and measured after 6 hrs by immunoassay. Format: tissue-based.
Data set [19] deals with Vascular endothelial growth factor receptor 3 (Homo sapiens) (UniProt P35916). In words: Inhibition of human VEGFR3 at 1 uM using poly[Glu:Tyr] (4:1) as substrate in presence of [gamma-33P]ATP relative to control.
The test system of a further data set is Cricetinae. In words: Displacement of [125I]2-iodomelatonin from hamster MT3 receptor at 10 uM measured after 60 mins by scintillation counting method.
For data set [20], the system named is Mus musculus. In words: Antiinflammatory activity TNBS-induced mouse model of colitis assessed as decrease in colitis score at 7.5 to 145 mg/kg, po administered twice daily via gavage pretreated for 2 days followed by TNBS stimulation on day 3 and subsequent compound dosing from day 3 to 6 measured post-last dose by histological analysis. Type of data set: functional, organism-based.

Data set [21] can be described thus: Prodrug conversion in Sprague-Dawley rat hepatic portal vein assessed as 2-((4-(Benzo[d]thiazol-5-ylamino)-6-(tert-butylsulfonyl)quinazolin-7-yl)oxy)ethanol formation. Type of data set: ADME. The conditions noted are these: in vivo.
Data set [22] has as its target T1, Voltage-gated inwardly rectifying potassium channel KCNH2. In words: Inhibition of human ERG (1159 residues) expressed in CHOK1 cells at 7.3 uM at -80 mV holding potential measured after 5 mins by QPatch electrophysiology method. Format: cell-based.
Data set [23] addresses T3, Cytochrome P450 3A4 (Homo sapiens, UniProt P08684). The experiment in a line: Inhibition of CYP3A4 (unknown origin) at 126 nM. The note with it: 0.126 µM. Type of data set: ADME.
For data set [24], the target named is T3, Cytochrome P450 3A4. In words: Time dependent inhibition of CYP3A4 (unknown origin). Format: ADME.
The target in the next data set is CYP3A4 (Homo sapiens, UniProt P08684). In words: Ratio of IC50 for time dependent inhibition of CYP3A4 (unknown origin) in presence of NADPH to IC50 for time dependent inhibition of CYP3A4 (unknown origin) in absence of NADPH. The note with it: read-out: Ratio IC50.
The test system of data set [25] is Mus musculus. The experiment in a line: Antiinflammatory activity TNBS-induced mouse model of colitis assessed as decrease in colitis score at 1.5 mg/kg, po administered twice daily via gavage pretreated for 2 days followed by TNBS stimulation on day 3 and subsequent compound dosing from day 3 to 6 measured post-last dose by histological analysis. Type of data set: functional, organism-based.

Data set [26] deals with Intestinal mucosa. In words: Antiinflammatory activity in crohn's disease patient derived inflamed intestinal mucosa assessed as reduction in IL1beta production at 1 uM measured after overnight incubation by immunoassay. Format: functional, tissue-based. The conditions noted are these: Homo sapiens.
In data set [27] the test system is Intestinal mucosa. The experiment in a line: Antiinflammatory activity in crohn's disease patient derived inflamed intestinal mucosa assessed as reduction in IL6 production at 1 uM measured after overnight incubation by immunoassay. Type of data set: functional, tissue-based. The conditions noted are these: Homo sapiens.
In data set [28] the test system is Intestinal mucosa. The experiment in a line: Antiinflammatory activity in ulcerative colitis patient derived inflamed intestinal mucosa assessed as reduction in IL1beta production at 1 uM measured after overnight incubation by immunoassay. Format: functional, tissue-based. The conditions noted are these: Homo sapiens.
The subject of data set [29] is Intestinal mucosa. In words: Antiinflammatory activity in ulcerative colitis patient derived inflamed intestinal mucosa assessed as reduction in IL6 production at 1 uM measured after overnight incubation by immunoassay. Format: functional, tissue-based. The conditions noted are these: Homo sapiens.

In brackets after ≈: the same amount, converted by molar mass. Activity calls are given as the source filed them. No cut-off for these calls is given here.

T1 sequence (Q12809 whole entry): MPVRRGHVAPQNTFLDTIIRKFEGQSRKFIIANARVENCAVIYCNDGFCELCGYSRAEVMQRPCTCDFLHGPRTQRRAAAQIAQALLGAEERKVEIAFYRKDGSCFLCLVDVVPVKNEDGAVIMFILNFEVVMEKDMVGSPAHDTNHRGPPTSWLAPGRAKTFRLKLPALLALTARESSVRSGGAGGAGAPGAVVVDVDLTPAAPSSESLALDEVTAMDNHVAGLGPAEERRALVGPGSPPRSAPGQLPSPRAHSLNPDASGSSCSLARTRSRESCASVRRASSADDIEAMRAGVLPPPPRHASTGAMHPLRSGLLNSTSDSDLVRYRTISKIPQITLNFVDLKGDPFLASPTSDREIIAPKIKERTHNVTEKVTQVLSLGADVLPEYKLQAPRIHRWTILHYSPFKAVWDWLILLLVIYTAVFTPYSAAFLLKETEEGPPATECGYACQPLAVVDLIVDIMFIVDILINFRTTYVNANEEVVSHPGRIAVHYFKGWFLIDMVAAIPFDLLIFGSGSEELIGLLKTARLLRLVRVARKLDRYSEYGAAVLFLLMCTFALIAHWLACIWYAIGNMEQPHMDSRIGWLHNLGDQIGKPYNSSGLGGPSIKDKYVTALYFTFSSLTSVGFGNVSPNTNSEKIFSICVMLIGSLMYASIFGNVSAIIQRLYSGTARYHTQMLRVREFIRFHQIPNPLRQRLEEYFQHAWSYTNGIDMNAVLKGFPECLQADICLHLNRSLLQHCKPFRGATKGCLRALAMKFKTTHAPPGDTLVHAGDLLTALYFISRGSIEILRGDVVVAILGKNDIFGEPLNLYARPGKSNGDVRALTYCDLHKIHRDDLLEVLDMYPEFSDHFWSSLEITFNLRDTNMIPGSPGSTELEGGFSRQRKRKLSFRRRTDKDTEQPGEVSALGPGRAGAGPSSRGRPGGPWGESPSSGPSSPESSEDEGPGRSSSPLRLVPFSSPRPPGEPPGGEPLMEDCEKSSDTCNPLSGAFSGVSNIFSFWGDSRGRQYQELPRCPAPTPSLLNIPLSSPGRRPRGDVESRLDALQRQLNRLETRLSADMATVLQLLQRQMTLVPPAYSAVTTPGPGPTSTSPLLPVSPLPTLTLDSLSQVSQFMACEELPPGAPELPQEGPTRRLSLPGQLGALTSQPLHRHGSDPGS
T2 sequence (O43353 whole entry): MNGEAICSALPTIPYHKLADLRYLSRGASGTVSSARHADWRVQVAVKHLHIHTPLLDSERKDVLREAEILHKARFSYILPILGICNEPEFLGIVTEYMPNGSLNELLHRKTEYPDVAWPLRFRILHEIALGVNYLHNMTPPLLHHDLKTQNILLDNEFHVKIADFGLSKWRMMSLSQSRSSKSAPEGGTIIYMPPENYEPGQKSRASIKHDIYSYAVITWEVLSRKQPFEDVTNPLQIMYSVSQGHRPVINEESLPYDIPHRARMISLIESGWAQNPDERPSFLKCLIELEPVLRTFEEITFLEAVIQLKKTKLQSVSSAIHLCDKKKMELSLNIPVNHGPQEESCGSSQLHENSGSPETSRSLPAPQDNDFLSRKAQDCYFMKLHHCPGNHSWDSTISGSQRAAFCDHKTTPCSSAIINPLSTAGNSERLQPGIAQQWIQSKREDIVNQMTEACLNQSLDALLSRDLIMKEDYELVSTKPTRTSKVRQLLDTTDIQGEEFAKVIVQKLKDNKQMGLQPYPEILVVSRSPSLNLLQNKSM
T3 sequence (P08684 whole entry): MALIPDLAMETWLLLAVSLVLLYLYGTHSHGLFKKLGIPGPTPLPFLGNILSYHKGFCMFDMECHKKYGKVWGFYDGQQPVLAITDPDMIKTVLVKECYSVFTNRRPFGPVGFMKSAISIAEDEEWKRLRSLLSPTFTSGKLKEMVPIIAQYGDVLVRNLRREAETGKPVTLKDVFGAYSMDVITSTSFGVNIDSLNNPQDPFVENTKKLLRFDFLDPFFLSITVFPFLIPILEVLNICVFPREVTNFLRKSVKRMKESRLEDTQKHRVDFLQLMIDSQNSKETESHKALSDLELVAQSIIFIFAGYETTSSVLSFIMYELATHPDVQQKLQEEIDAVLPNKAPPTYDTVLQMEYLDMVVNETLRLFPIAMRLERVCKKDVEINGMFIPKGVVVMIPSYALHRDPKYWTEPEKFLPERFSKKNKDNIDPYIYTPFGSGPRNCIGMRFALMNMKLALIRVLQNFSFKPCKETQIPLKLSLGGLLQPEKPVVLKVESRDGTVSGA
Chain of Vascular endothelial growth factor receptor 3 (Homo sapiens) (P35916 whole entry): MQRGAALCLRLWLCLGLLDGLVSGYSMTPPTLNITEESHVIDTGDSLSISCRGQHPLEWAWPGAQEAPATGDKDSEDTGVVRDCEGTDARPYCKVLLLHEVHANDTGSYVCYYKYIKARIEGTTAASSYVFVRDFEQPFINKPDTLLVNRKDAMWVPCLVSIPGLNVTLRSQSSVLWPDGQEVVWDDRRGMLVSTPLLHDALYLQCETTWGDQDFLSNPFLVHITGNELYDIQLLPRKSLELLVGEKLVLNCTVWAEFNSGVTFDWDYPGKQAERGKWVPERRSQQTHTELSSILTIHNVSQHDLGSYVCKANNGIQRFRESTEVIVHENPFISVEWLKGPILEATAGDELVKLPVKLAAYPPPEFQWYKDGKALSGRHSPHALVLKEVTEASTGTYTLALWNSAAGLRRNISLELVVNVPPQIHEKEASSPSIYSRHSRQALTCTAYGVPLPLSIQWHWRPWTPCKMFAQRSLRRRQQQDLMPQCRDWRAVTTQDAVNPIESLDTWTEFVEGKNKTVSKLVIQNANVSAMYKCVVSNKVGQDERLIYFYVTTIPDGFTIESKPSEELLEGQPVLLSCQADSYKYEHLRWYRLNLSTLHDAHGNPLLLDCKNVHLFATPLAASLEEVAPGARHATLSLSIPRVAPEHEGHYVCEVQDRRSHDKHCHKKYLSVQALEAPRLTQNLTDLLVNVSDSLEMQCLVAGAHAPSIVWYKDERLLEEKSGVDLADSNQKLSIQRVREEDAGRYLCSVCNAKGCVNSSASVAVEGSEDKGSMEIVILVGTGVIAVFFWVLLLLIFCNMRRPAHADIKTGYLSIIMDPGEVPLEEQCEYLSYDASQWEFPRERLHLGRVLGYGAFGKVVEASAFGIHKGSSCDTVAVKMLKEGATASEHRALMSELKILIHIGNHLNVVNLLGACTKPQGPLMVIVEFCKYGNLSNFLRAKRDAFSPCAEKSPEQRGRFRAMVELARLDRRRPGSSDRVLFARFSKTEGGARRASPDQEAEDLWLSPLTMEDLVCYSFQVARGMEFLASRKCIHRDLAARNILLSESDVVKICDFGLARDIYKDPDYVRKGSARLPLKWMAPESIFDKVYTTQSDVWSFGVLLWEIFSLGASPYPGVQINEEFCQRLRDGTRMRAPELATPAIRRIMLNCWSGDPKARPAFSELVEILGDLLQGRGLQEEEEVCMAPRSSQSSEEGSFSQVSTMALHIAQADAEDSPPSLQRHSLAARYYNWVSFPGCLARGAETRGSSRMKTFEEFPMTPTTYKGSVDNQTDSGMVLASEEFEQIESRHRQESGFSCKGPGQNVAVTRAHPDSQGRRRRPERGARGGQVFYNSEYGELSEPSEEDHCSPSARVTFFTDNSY
Chain of CYP3A4 (P08684 whole entry): as the sequence (P08684 whole entry) above

As to `CN(C)C(=O)OCCOc1cc2ncnc(Nc3ccc4scnc4c3)c2cc1S(=O)(=O)C(C)(C)C`, the AUC was 10 ng·h/mL in data set [1] and 0.01 µg·h/mL in data set [3]. The amount in solution in [2] (solubility at 4 h) came to 12 µg/mL (≈ 22.7 µM). Also, in data set [4], the Drug uptake entry was “Not Active”.

For the compound `CC(C)S(=O)(=O)c1ccc2nccc(Nc3n[nH]c4ccc(F)cc34)c2c1`, the IC50 in data set [5] was determined as 25 nM. For the same compound, the inhibition result in the data set listed under Homo sapiens [6] was “Dose-dependent effect”. Further, the inhibition result in the data set filed under Homo sapiens [7], in the data set listed under Homo sapiens [8], in the data set listed under Homo sapiens [9], in the data set listed under Homo sapiens [10], in the data set listed under Homo sapiens [11] and in the data set listed under Homo sapiens [12] was “Active” in each case. Besides, the inhibition result in the data set filed under Homo sapiens [13] is “Active”.

Regarding `CC(C)(C)S(=O)(=O)c1cc2c(Nc3ccc4scnc4c3)ncnc2cc1OCCOP(=O)([O-])[O-].[Na+].[Na+]`, the solubility entry in data set [14] and in [15] was “Soluble” in each case.

The compound `CC(C)(C)S(=O)(=O)c1cc2c(Nc3ccc4scnc4c3)ncnc2cc1OCCOS(=O)(=O)[O-].[Na+]` displayed a solubility at 4 h in data set [2] of 2460 µg/mL. Moreover, the Drug uptake result in data set [4] was “Not Active”.

For the compound `COc1cc2ncnc(Nc3ccc4scnc4c3)c2cc1S(=O)(=O)C(C)(C)C`, the IC50 in data set [16] is more than 30 µM; in data set [17] it was 4 nM; in data set [18], 374 nM.

Take `CC(C)(C)S(=O)(=O)c1cc2c(Nc3ccc4scnc4c3)ncnc2cc1OCCOP(=O)(O)O`: the inhibition in [19] is more than 90%. Moreover, the inhibition result in the data set with Cricetinae was “Active”. Also, in the data set on Mus musculus [20], the outcome was Active.

As to `CC(C)[C@H](N)C(=O)OCCOc1cc2ncnc(Nc3ccc4scnc4c3)c2cc1S(=O)(=O)C(C)(C)C.Cl.Cl`, the solubility at 4 h in data set [2] was determined as 690 µg/mL.

For the compound `CC(C)[C@H](N)C(=O)OCCOc1cc2ncnc(Nc3ccc4scnc4c3)c2cc1S(=O)(=O)C(C)(C)C`, the AUC in data set [3] was determined as 0.73 µg·h/mL. Moreover, the Drug uptake entry in data set [4] is reported as “Not Active”. In addition, the Drug metabolism result in data set [21] was “Metabolite_Detected”. Also, the “inhibition (INH)” value (in data set [22]; against Cytochrome P450 3A4 [23]; against Cytochrome P450 3A4 [24]) was “Active” each time. Also, the IC50 shift on CYP3A4 came out at 2.9.

As for `CC(C)(C)S(=O)(=O)c1cc2c(Nc3ccc4scnc4c3)ncnc2cc1OCCOP(=O)(O)O.Cl`, the solubility result in [14] and in data set [15] was “Soluble” each time.

Take `C[C@]12C=CC(=O)C=C1CC[C@@H]1[C@@H]2[C@@H](O)C[C@@]2(C)[C@H]1CC[C@]2(O)C(=O)CO`: the outcome in the data set with Mus musculus [25], with Intestinal mucosa [26], with Intestinal mucosa [27], in the data set on Intestinal mucosa [28] and in the data set with Intestinal mucosa [29] was Active.
